From ChEMBL document CHEMBL4007388, “Synthesis and antiproliferative activity of monocationic arylthiophene derivatives” (Eur J Med Chem, 2017)

Assays:
Malme-3M = experiment: Growth inhibition of human MALME-3M cells incubated for 48 hrs by sulforhodamine B assay; assay type: functional
BT-549 = experiment: Growth inhibition of human BT549 cells incubated for 48 hrs by sulforhodamine B assay; assay type: functional; details: BT-549, 48 h
OVCAR-5 = experiment: Growth inhibition of human OVCAR5 cells incubated for 48 hrs by sulforhodamine B assay; assay type: functional; details: OVCAR-5, 48 h
SNB-75 = experiment: Growth inhibition of human SNB75 cells incubated for 48 hrs by sulforhodamine B assay; assay type: functional; details: SNB-75, 48 h
SK-OV-3 = experiment: Growth inhibition of human SKOV3 cells incubated for 48 hrs by sulforhodamine B assay; assay type: functional; details: SK-OV-3, 48 h
HCT-15 = experiment: Growth inhibition of human HCT15 cells incubated for 48 hrs by sulforhodamine B assay; assay type: functional; details: HCT-15, 48 h
PC-3 = experiment: Growth inhibition of human PC3 cells incubated for 48 hrs by sulforhodamine B assay; assay type: functional; details: PC-3, 48 h
HCC 2998 = experiment: Growth inhibition of human HCC2998 cells incubated for 48 hrs by sulforhodamine B assay; assay type: functional; details: HCC 2998, 48 h
Hs-578T = experiment: Growth inhibition of human Hs 578T cells incubated for 48 hrs by sulforhodamine B assay; assay type: functional
RPMI-8226 = experiment: Growth inhibition of human RPMI8226 cells incubated for 48 hrs by sulforhodamine B assay; assay type: functional; details: RPMI-8226, 48 h
OVCAR-3 = experiment: Growth inhibition of human OVCAR3 cells incubated for 48 hrs by sulforhodamine B assay; assay type: functional; details: OVCAR-3, 48 h
UACC-257 = experiment: Growth inhibition of human UACC257 cells incubated for 48 hrs by sulforhodamine B assay; assay type: functional; details: UACC-257, 48 h
NCI-H322M = experiment: Growth inhibition of human NCI-H322M cells incubated for 48 hrs by sulforhodamine B assay; assay type: functional
NCI/ADR-RES = experiment: Growth inhibition of human NCI/ADR-RES cells incubated for 48 hrs by sulforhodamine B assay; assay type: functional
MCF7 = experiment: Growth inhibition of human MCF7 cells incubated for 48 hrs by sulforhodamine B assay; assay type: functional; details: MCF7, 48 h
[1] = Growth inhibition of human NCI60 cells at 10 uM after 48 hrs by SRB assay relative to control; values are per cent of control; details: NCI60, 48 h
SK-MEL-28 = experiment: Growth inhibition of human SK-MEL-28 cells incubated for 48 hrs by sulforhodamine B assay; assay type: functional; details: SK-MEL-28, 48 h
COLO 205 = experiment: Growth inhibition of human COLO205 cells incubated for 48 hrs by sulforhodamine B assay; assay type: functional; details: COLO 205, 48 h
IGROV-1 = experiment: Growth inhibition of human IGROV1 cells incubated for 48 hrs by sulforhodamine B assay; assay type: functional; details: IGROV-1, 48 h
MDA-MB-468 = experiment: Growth inhibition of human MDA-MB-468 cells incubated for 48 hrs by sulforhodamine B assay; assay type: functional; details: MDA-MB-468, 48 h
SNB-19 = experiment: Growth inhibition of human SNB19 cells incubated for 48 hrs by sulforhodamine B assay; assay type: functional; details: SNB-19, 48 h
CAKI-1 = experiment: Growth inhibition of human Caki1 cells incubated for 48 hrs by sulforhodamine B assay; assay type: functional; details: CAKI-1, 48 h
LOX IMVI = experiment: Growth inhibition of human LOXIMVI cells incubated for 48 hrs by sulforhodamine B assay; assay type: functional
NCI-H23 = experiment: Growth inhibition of human NCI-H23 cells incubated for 48 hrs by sulforhodamine B assay; assay type: functional; details: NCI-H23, 48 h
DU-145 = experiment: Growth inhibition of human DU145 cells incubated for 48 hrs by sulforhodamine B assay; assay type: functional; details: DU-145, 48 h
HCT-116 = experiment: Growth inhibition of human HCT116 cells incubated for 48 hrs by sulforhodamine B assay; assay type: functional; details: HCT-116, 48 h
K562 = experiment: Growth inhibition of human K562 cells incubated for 48 hrs by sulforhodamine B assay; assay type: functional; details: K562, 48 h
SK-MEL-5 = experiment: Growth inhibition of human SK-MEL-5 cells incubated for 48 hrs by sulforhodamine B assay; assay type: functional; details: SK-MEL-5, 48 h
HT-29 = experiment: Growth inhibition of human HT-29 cells incubated for 48 hrs by sulforhodamine B assay; assay type: functional; details: HT-29, 48 h
WISH = experiment: Cytotoxicity against human WISH cells assessed as reduction in cell viability after 24 hrs by MTT assay; assay type: cell-based
SW-620 = experiment: Growth inhibition of human SW620 cells incubated for 48 hrs by sulforhodamine B assay; assay type: functional; details: SW-620, 48 h
M14 = experiment: Growth inhibition of human M14 cells incubated for 48 hrs by sulforhodamine B assay; assay type: functional; details: M14, 48 h
RXF 393 = experiment: Growth inhibition of human RXF393 cells incubated for 48 hrs by sulforhodamine B assay; assay type: functional; details: RXF 393, 48 h
MDA-MB-435 = experiment: Growth inhibition of human MDA-MB-435 cells incubated for 48 hrs by sulforhodamine B assay; assay type: functional; details: MDA-MB-435, 48 h
HOP-92 = experiment: Growth inhibition of human HOP92 cells incubated for 48 hrs by sulforhodamine B assay; assay type: functional; details: HOP-92, 48 h
SR = experiment: Growth inhibition of human SR cells incubated for 48 hrs by sulforhodamine B assay; assay type: functional
UACC-62 = experiment: Growth inhibition of human UACC62 cells incubated for 48 hrs by sulforhodamine B assay; assay type: functional; details: UACC-62, 48 h
TK-10 = experiment: Growth inhibition of human TK10 cells incubated for 48 hrs by sulforhodamine B assay; assay type: functional; details: TK-10, 48 h
KM12 = experiment: Growth inhibition of human KM12 cells incubated for 48 hrs by sulforhodamine B assay; assay type: functional; details: KM12, 48 h
Homo sapiens = species on record: Homo sapiens; experiment: Inhibition of PTK in human MCF7 cells at 1 uM preincubated for 2 hrs followed by poly-Glu-Tyr substrate addition by ELISA relative to control; assay type: cell-based
HOP-62 = experiment: Growth inhibition of human HOP62 cells incubated for 48 hrs by sulforhodamine B assay; assay type: functional; details: HOP-62, 48 h
A498 = experiment: Growth inhibition of human A498 cells incubated for 48 hrs by sulforhodamine B assay; assay type: functional; details: A498, 48 h
WI-38 = experiment: Cytotoxicity against human WI38 cells assessed as reduction in cell viability after 24 hrs by MTT assay; assay type: cell-based; details: WI-38, 24 h
NCI-H460 = experiment: Growth inhibition of human NCI-H460 cells incubated for 48 hrs by sulforhodamine B assay; assay type: functional; details: NCI-H460, 48 h
NCI-H522 = experiment: Growth inhibition of human NCI-H522 cells incubated for 48 hrs by sulforhodamine B assay; assay type: functional; details: NCI-H522, 48 h
Escherichia coli = experiment: Induction of Escherichia coli genomic DNA cleavage after 1 hr by agarose gel electrophoresis method
ACHN = experiment: Growth inhibition of human ACHN cells incubated for 48 hrs by sulforhodamine B assay; assay type: functional

In the case of `COc1cc(OC)cc(-c2ccc(-c3ccc(C(=N)N)c(F)c3)s2)c1`, the GI50 (Malme-3M) is reported as 195 nM, the GI50 (BT-549) is reported as 1370 nM and the GI50 (OVCAR-5) is reported as 207 nM. It also gave a GI50 (SNB-75) of 1300 nM, a GI50 (SK-OV-3) of 1640 nM and a GI50 (HCT-15) of 196 nM. It also gave a GI50 (PC-3) of 1300 nM, a GI50 (HCC 2998) of 207 nM and a GI50 (Hs-578T) of 1470 nM. The GI50 (RPMI-8226) was 246 nM, the GI50 (OVCAR-3) was 815 nM and the GI50 (UACC-257) was 1850 nM. The GI50 (NCI-H322M) was 502 nM, the GI50 (NCI/ADR-RES) was 1590 nM and the GI50 (MCF7) was 194 nM. For the same molecule, the growth percent at 10 µM [1] was -77.8%, the GI50 (SK-MEL-28) was 176 nM and the GI50 (COLO 205) was 208 nM. It also gave a GI50 (IGROV-1) of 484 nM, a GI50 (MDA-MB-468) of 182 nM and a GI50 (SNB-19) of 1030 nM. It also gave a GI50 (CAKI-1) of 233 nM, a GI50 (LOX IMVI) of 196 nM and a GI50 (NCI-H23) of 1430 nM. The GI50 (DU-145) was 426 nM, the GI50 (HCT-116) was 173 nM and the GI50 (K562) was 262 nM. The GI50 (SK-MEL-5) was 956 nM, the GI50 (HT-29) was 267 nM and the IC50 (WISH) was 115000 nM. The GI50 (SW-620) was 212 nM, the GI50 (M14) was 184 nM and the GI50 (RXF 393) was 449 nM. The GI50 (MDA-MB-435) was 194 nM, the GI50 (HOP-92) was 665 nM and the GI50 (SR) was 224 nM. It also gave a GI50 (UACC-62) of 1440 nM, a GI50 (TK-10) of 1780 nM and a GI50 (KM12) of 352 nM. For the same molecule, the inhibition (Homo sapiens) was 74%, the GI50 (HOP-62) was 1610 nM and the GI50 (A498) was 1330 nM. For the same molecule, the IC50 (WI-38) was 123000 nM, the GI50 (NCI-H460) was 195 nM and the GI50 (NCI-H522) was 1200 nM. The Activity (Escherichia coli) was “Dose-dependent effect” and the GI50 (ACHN) was 181 nM.
